# Biological target: T1, C5AR1 (Homo sapiens, UniProt P21730)
# T1 construct: host or cells: CHO-K1
# T1 sequence (P21730 1-350): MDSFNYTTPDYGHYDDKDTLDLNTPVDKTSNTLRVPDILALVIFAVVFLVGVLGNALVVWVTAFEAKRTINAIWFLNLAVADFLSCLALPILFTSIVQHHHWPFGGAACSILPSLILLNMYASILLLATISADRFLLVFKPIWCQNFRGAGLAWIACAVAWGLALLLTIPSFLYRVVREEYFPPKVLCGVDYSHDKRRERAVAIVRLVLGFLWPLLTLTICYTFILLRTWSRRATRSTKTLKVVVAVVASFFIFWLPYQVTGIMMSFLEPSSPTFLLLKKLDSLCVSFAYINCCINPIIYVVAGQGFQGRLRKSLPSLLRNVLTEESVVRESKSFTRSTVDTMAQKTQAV
# Assay: hC5a DISCO IC50 assay (PathHunter beta-arrestin, antagonist mode)
# Format: cell-based
# Details: CHO-K1 C5AR1 beta-arrestin cell line; antagonist vs 1-10 nM C5a agonist; geometric mean values; read-out: C5aR IC50
# Procedure, shortened: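 Antagonist added first, then 1-10 nM C5a agonist; cells incubated 1.5 h at 37 °C. Beta-arrestin signal developed with PathHunter detection reagent, 45 min at RT. IC50 in nmol/l from serial antagonist dilutions, reported as geometric mean of several measurements.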
row,SMILES,IC50 [nM]
1,"COc1ccccc1Cn1c(=O)n([C@@H]2CCN(c3c(C)cccc3F)C2)c2cccc(OC)c21 [Example 110, 1-[(R)-1-(2-Fluoro-6-methyl-phenyl)-pyrrolidin-3-yl]-4-methoxy-3-(2-methoxy-benzyl)-1,3-dihydro-benzoimidazol-2-one]",6
2,"COc1cccc2c1n(Cc1nccnc1C(F)(F)F)c(=O)n2[C@@H]1CCN(c2c(F)cccc2C#N)C1 [Example 111, 3-Fluoro-2-{(R)-3-[4-methoxy-2-oxo-3-(3-trifluoromethyl-pyrazin-2-ylmethyl)-2,3-dihydro-benzoimidazol-1-yl]-pyrrolidin-1-yl}-benzonitrile]",264
3,"COc1nccnc1Cn1c(=O)n([C@@H]2CCN(c3c(F)cccc3C#N)C2)c2cccc(OC)c21 [Example 112, 3-Fluoro-2-{(R)-3-[4-methoxy-3-(3-methoxy-pyrazin-2-ylmethyl)-2-oxo-2,3-dihydro-benzoimidazol-1-yl]-pyrrolidin-1-yl}-benzonitrile]",511
4,"COc1ncncc1Cn1c(=O)n(C2CCN(c3c(F)cccc3C#N)CC2)c2cccc(OC)c21 [Example 113, 3-Fluoro-2-{4-[4-methoxy-3-(4-methoxy-pyrimidin-5-ylmethyl)-2-oxo-2,3-dihydro-benzoimidazol-1-yl]-piperidin-1-yl}-benzonitrile]",2240
5,"COc1ncncc1Cn1c(=O)n([C@@H]2CCN(c3c(F)cccc3C#N)C2)c2cccc(OC)c21 [Example 114, 3-Fluoro-2-{(R)-3-[4-methoxy-3-(4-methoxy-pyrimidin-5-ylmethyl)-2-oxo-2,3-dihydro-benzoimidazol-1-yl]-pyrrolidin-1-yl}-benzonitrile]",1540
6,"COc1cccc2c1n(Cc1ccccc1C(F)(F)F)c(=O)n2[C@@H]1CCN(c2c(F)cccc2CN2CCOCC2)C1 [Example 115, 1-[(R)-1-(2-Fluoro-6-morpholin-4-ylmethyl-phenyl)-pyrrolidin-3-yl]-4-methoxy-3-(2-trifluoromethyl-benzyl)-1,3-dihydro-benzoimidazol-2-one]",21
7,"COc1cccc2c1n(Cc1ccccc1C(F)(F)F)c(=O)n2[C@@H]1CCN(c2c(F)cccc2CN2CCCC2)C1 [Example 116, 1-[(R)-1-(2-Fluoro-6-pyrrolidin-1-ylmethyl-phenyl)-pyrrolidin-3-yl]-4-methoxy-3-(2-trifluoromethyl-benzyl)-1,3-dihydro-benzoimidazol-2-one]",165
8,"COc1cccc2c1n(Cc1cncnc1C(F)(F)F)c(=O)n2C1CCN(c2c(F)cccc2C#N)CC1 [Example 117, 3-Fluoro-2-{4-[4-methoxy-2-oxo-3-(4-trifluoromethyl-pyrimidin-5-ylmethyl)-2,3-dihydro-benzoimidazol-1-yl]-piperidin-1-yl}-benzonitrile]",308
9,"Cc1cccc(C)c1N1CC[C@@H](n2c(=O)n(Cc3ccccc3C(F)(F)F)c3c(NCCO)nccc32)C1 [Example 118, 1-[(R)-1-(2,6-Dimethyl-phenyl)-pyrrolidin-3-yl]-4-(2-hydroxy-ethylamino)-3-(2-trifluoromethyl-benzyl)-1,3-dihydro-imidazo[4,5-c]pyridin-2-one]",201
10,"Cc1cccc(C)c1N1CC[C@@H](n2c(=O)n(Cc3ccccc3C(F)(F)F)c3c(OCCO)nccc32)C1 [Example 119, 1-[(R)-1-(2,6-Dimethyl-phenyl)-pyrrolidin-3-yl]-4-(2-hydroxy-ethoxy)-3-(2-trifluoromethyl-benzyl)-1,3-dihydro-imidazo[4,5-c]pyridin-2-one]",12
11,"COc1cccc2c1n(Cc1ccccc1C(F)(F)F)c(=O)n2[C@@H]1CCN(c2c(F)cccc2CC=O)C1 [Example 126, (3-Fluoro-2-{(R)-3-[4-methoxy-2-oxo-3-(2-trifluoromethyl-benzyl)-2,3-dihydro-benzoimidazol-1-yl]-pyrrolidin-1-yl}-phenyl)-acetaldehyde]",20
12,"COc1cccc2c1n(Cc1ccccc1C(F)(F)F)c(=O)n2[C@@H]1CCN(c2c(F)cccc2CCN2CCOCC2)C1 [Example 131, 1-{(R)-1-[2-Fluoro-6-(2-morpholin-4-yl-ethyl)-phenyl]-pyrrolidin-3-yl}-4-methoxy-3-(2-trifluoromethyl-benzyl)-1,3-dihydro-benzoimidazol-2-one]",53
13,"COc1cccc2c1n(Cc1ccccc1C(F)(F)F)c(=O)n2[C@@H]1CCN(c2c(F)cccc2CN2CCN(C)CC2)C1 [Example 132, 1-{(R)-1-[2-Fluoro-6-(4-methyl-piperazin-1-ylmethyl)-phenyl]-pyrrolidin-3-yl}-4-methoxy-3-(2-trifluoromethyl-benzyl)-1,3-dihydro-benzoimidazol-2-one]",314
14,"COc1cccc2c1n(Cc1ccccc1C(F)(F)F)c(=O)n2[C@@H]1CCN(c2c(F)cccc2CN2CCCCC2)C1 [Example 133, 1-[(R)-1-(2-Fluoro-6-piperidin-1-ylmethyl-phenyl)-pyrrolidin-3-yl]-4-methoxy-3-(2-trifluoromethyl-benzyl)-1,3-dihydro-benzoimidazol-2-one]",70
15,"COc1cccc2c1n(Cc1ccccc1C(F)(F)F)c(=O)n2[C@@H]1CCN(c2c(F)cccc2CN2CCC(O)CC2)C1 [Example 134, 1-{(R)-1-[2-Fluoro-6-(4-hydroxy-piperidin-1-ylmethyl)-phenyl]-pyrrolidin-3-yl}-4-methoxy-3-(2-trifluoromethyl-benzyl)-1,3-dihydro-benzoimidazol-2-one]",2260

# Results, then the compound that gave them:
row,IC50 [nM],SMILES
1,659,"Cc1cccc(F)c1N1CC[C@@H](n2c(=O)n(Cc3ccccc3C(F)(F)F)c3c(OCCN(C)C)nccc32)C1 [Example 120, 4-(2-Dimethylamino-ethoxy)-1-[(R)-1-(2-fluoro-6-methyl-phenyl)-pyrrolidin-3-yl]-3-(2-trifluoromethyl-benzyl)-1,3-dihydro-imidazo[4,5-c]pyridin-2-one]"
2,270,"Cc1cccc(F)c1N1CC[C@@H](n2c(=O)n(Cc3ccccc3C(F)(F)F)c3c(OCCN4CCOCC4)nccc32)C1 [Example 121, 1-[(R)-1-(2-Fluoro-6-methyl-phenyl)-pyrrolidin-3-yl]-4-(2-morpholin-4-yl-ethoxy)-3-(2-trifluoromethyl-benzyl)-1,3-dihydro-imidazo[4,5-c]pyridin-2-one]"
3,509,"Cc1cccc(F)c1N1CC[C@@H](n2c(=O)n(Cc3ccccc3C(F)(F)F)c3c(OC4CCN(C(=O)OC(C)(C)C)CC4)nccc32)C1 [Example 122, 4-[1-[(R)-1-(2-Fluoro-6-methyl-phenyl)-pyrrolidin-3-yl]-2-oxo-3-(2-trifluoromethyl-benzyl)-2,3-dihydro-1H-imidazo[4,5-c]pyridin-4-yloxy]-piperidine-1-carboxylic acid tert-butyl ester]"
4,42,"Cc1cccc(F)c1N1CC[C@@H](n2c(=O)n(Cc3ccccc3C(F)(F)F)c3c(N(C)CCO)nccc32)C1 [Example 123, 1-[(R)-1-(2-Fluoro-6-methyl-phenyl)-pyrrolidin-3-yl]-4-[(2-hydroxy-ethyl)-methyl-amino]-3-(2-trifluoromethyl-benzyl)-1,3-dihydro-imidazo[4,5-c]pyridin-2-one]"
5,5220,"Cc1cccc(F)c1N1CC[C@@H](n2c(=O)n(Cc3ccccc3C(F)(F)F)c3c(OC4CCNCC4)nccc32)C1 [Example 124, 1-[(R)-1-(2-Fluoro-6-methyl-phenyl)-pyrrolidin-3-yl]-4-(piperidin-4-yloxy)-3-(2-trifluoromethyl-benzyl)-1,3-dihydro-imidazo[4,5-c]pyridin-2-one]"
6,124,"Cc1cccc(F)c1N1CC[C@@H](n2c(=O)n(Cc3ccccc3C(F)(F)F)c3c(OCC4COC(C)(C)O4)nccc32)C1 (stereo partly drawn) [Example 125, 4-(2,2-Dimethyl-[1,3]dioxolan-4-ylmethoxy)-1-[(R)-1-(2-fluoro-6-methyl-phenyl)-pyrrolidin-3-yl]-3-(2-trifluoromethyl-benzyl)-1,3-dihydro-imidazo[4,5-c]pyridin-2-one]"
7,17,"Cc1cccc(F)c1N1CC[C@@H](n2c(=O)n(Cc3ccccc3C(F)(F)F)c3c(OC4COC4)nccc32)C1 [Example 127, 1-[(R)-1-(2-Fluoro-6-methyl-phenyl)-pyrrolidin-3-yl]-4-(oxetan-3-yloxy)-3-(2-trifluoromethyl-benzyl)-1,3-dihydro-imidazo[4,5-c]pyridin-2-one]"
8,207,"Cc1cccc(F)c1N1CC[C@@H](n2c(=O)n(Cc3ccccc3C(F)(F)F)c3c(OCC(O)CO)nccc32)C1 (stereo partly drawn) [Example 128, 4-(2,3-Dihydroxy-propoxy)-1-[(R)-1-(2-fluoro-6-methyl-phenyl)-pyrrolidin-3-yl]-3-(2-trifluoromethyl-benzyl)-1,3-dihydro-imidazo[4,5-c]pyridin-2-one]"
9,53,"Cc1cccc(F)c1N1CC[C@@H](n2c(=O)n(Cc3ccccc3C(F)(F)F)c3c(N4CCOCC4)nccc32)C1 [Example 129, 1-[(R)-1-(2-Fluoro-6-methyl-phenyl)-pyrrolidin-3-yl]-4-morpholin-4-yl-3-(2-trifluoromethyl-benzyl)-1,3-dihydro-imidazo[4,5-c]pyridin-2-one]"
10,3910,"Cc1cccc(F)c1N1CC[C@@H](n2c(=O)n(Cc3ccccc3C(F)(F)F)c3c(OC4CCN(C)C4)nccc32)C1 (stereo partly drawn) [Example 130, 1-[(R)-1-(2-Fluoro-6-methyl-phenyl)-pyrrolidin-3-yl]-4-(1-methyl-pyrrolidin-3-yloxy)-3-(2-trifluoromethyl-benzyl)-1,3-dihydro-imidazo[4,5-c]pyridin-2-one]"
